The values that follow come from paper PMC9958940 (Viruses, 2023).

Where two headings read alike, the source gives them in different places. Starred links: 1 amine or outer side, 2 acyl side, 3 side chain; linkers in the order of their positions; H or OH if unused. Positions of bridges follow the written chain, without caps; N, C: chain ends. Non-standard residues stand in square brackets, D forms with d. Residues, ends and D or L forms follow the SMILES beside them. *: point of attachment. hTyr(3S-OH,4S-OH,3'-OSO3H) = N[C@H](C(=O)O)[C@H](O)[C@@H](O)c1ccc(O)c(OS(=O)(=O)O)c1; pTerphenylCO(4''-OnC5H11) = CCCCCOc1ccc(-c2ccc(-c3ccc(C(=O)*)cc3)cc2)cc1; Orn(4R-OH,5R-OH) = O=C([C@H](C[C@@H](O)[C@@H](O)N[*:3])N[*:1])[*:2]; hTyr(3S-OH,4S-OH) = N[C@H](C(=O)O)[C@H](O)[C@@H](O)c1ccc(O)cc1; Pro(3S-OH,4S-Me) = C[C@H]1CN[C@H](C(=O)O)[C@H]1O; X1 = CCCCCOc1ccc(-c2cc(-c3ccc(C(=O)*)cc3)no2)cc1; Gln(3R-OH) = NC(=O)C[C@@H](O)[C@H](N)C(=O)O; Hyp = O=C(O)[C@@H]1C[C@@H](O)CN1 Where only a bound is given, the exact number is not on record here.

For data set [1], the system named is VeroE6/TMPRSS2 cells. The conditions noted are these: read-out: Cell Viability CC50, essentially in the same experimental condition, ref Ohashi et al. [29]; cited from earlier work.
Data set [2] has as its system SARS-CoV-2 Wuhan strain. The conditions noted are these: VeroE6/TMPRSS2 cells, essentially in the same experimental condition; ref Ohashi et al. [29]; read-out: SARS-CoV-2 RNA IC50; cited from earlier work.
Data set [3] concerns SARS-CoV-2 Wuhan strain. In kind it is cell-based.
The nature of data set [4]: Cell viability (cell-counting kit-8, WST-8) in VeroE6/TMPRSS2 cells. The settings on record: African green monkey, 24 h with compound. In kind it is cell-based. (Tetrazolium dyes change colour on reduction, which living cells bring about.)
Data set [5] has as its system SARS-CoV-2 Wuhan strain. The experiment in a line: microbe, parasite or virus in culture. In kind it is cell-based. The settings on record: VeroE6/TMPRSS2 cells; for IC50: Severe acute respiratory syndrome coronavirus 2, Wuhan strain, MOI 0.003, extracellular viral RNA at 24 h.
Data set [6] has as its system Dengue virus serotype 2 (DENV-2). Also noted: method as in ref [12] = [12]. The conditions noted are these: Vero cells; ref [12]; read-out: IC50, DENV-2 infection; cited from earlier work.
Data set [7] deals with Zika virus (ZIKV). Also noted: method as in ref [14] = [14]. The settings on record: Vero cells; ref [14]; read-out: IC50, ZIKV infection; cited from earlier work.
For data set [8], the system named is SARS-CoV-2. The conditions noted are these: Vero cells, read-out: IC50, SARS-CoV-2 infection, cited from earlier work.
The subject of data set [9] is 3CLpro. The arrangement: method as in ref [33] = [33]. The settings on record: in vitro; ref [33]; read-out: IC50, 3CLpro enzymatic activity; cited from earlier work.
Details of data set [10]: method as in ref [7] = [7]. The settings on record: human adults, 100 mg daily; ref [7]; cited from earlier work.
Data set [11] concerns Enterovirus 71 (EV71) replicon. The arrangement: method as in ref [10] = [10]. The settings on record: Vero cells, estimated; ref [10]; read-out: IC50 to luciferase carrying EV71 replicon; cited from earlier work.
Data set [12] has as its system SARS-CoV-2 Wuhan strain. The experiment in a line: microbe, parasite or virus in culture. In kind it is cell-based. The conditions noted are these: Severe acute respiratory syndrome coronavirus 2, 24 h, Calu-3 cells, 3 h inoculation plus 21 h, read-out: SARS-CoV-2 RNA IC50.
Data set [13] has as its target helicase of DENV-2. Also noted: method as in ref [13] = [13]. The conditions noted are these: in vitro; ref [13]; read-out: IC50, DENV-2 helicase enzymatic activity; cited from earlier work.
For data set [14], the system named is Chikungunya virus (CHIKV). The arrangement: method as in ref [11] = [11]. The conditions noted are these: U2OS or BHK-21 cells; ref [11]; read-out: IC50, CHIKV infection; cited from earlier work.
The nature of data set [15]: Cell viability (cell-counting kit-8, WST-8) in Calu-3 cells. In kind it is cell-based. The conditions noted are these: human, 24 h with compound.

For the molecule `COc1ccc2cc1Oc1ccc(cc1)C[C@H]1c3c(cc4c(c3Oc3cc5c(cc3OC)CCN(C)[C@@H]5C2)OCO4)CCN1C` [Cepharanthine], the CC50 – broadly, the concentration giving 50% cytotoxicity – in data set [1] is 25.1 µM. In [2], the IC50 (in general, the midpoint of a concentration-inhibition curve) is 0.35 µM. In addition, in data set [3], the “effect on viral RNA levels, compound added at post-entry phase” value was “lower viral activity” and the “effect on viral RNA levels, compound added at virus entry phase” value is given as “considerable inhibition”.
For the molecule `CCC(CC)COC(=O)[C@H](C)N[P@](=O)(OC[C@H]1O[C@@](C#N)(c2ccc3c(N)ncnn23)[C@H](O)[C@@H]1O)Oc1ccccc1` [Remdesivir], the CC50 in data set [1] is above 64 µM. Moreover, in [2], the IC50 was 1.58 µM. In data set [3], the “effect on viral RNA levels, compound added at post-entry phase” value is given as “remarkable antiviral activity” and the “effect on viral RNA levels, compound added at virus entry phase” value is listed as “no inhibitory effect”.
`CC[C@H](C)C[C@H](C)CCCCCCCCC(=O)N[C@H]1C[C@@H](O)[C@@H](NCCN)NC(=O)[C@@H]2[C@@H](O)CCN2C(=O)[C@H]([C@H](O)CCN)NC(=O)[C@H]([C@H](O)[C@@H](O)c2ccc(O)cc2)NC(=O)[C@@H]2C[C@@H](O)CN2C(=O)[C@H]([C@@H](C)O)NC1=O` [Caspofungin]: in data set [4], the 50% cytotoxic concentration (CC50) at 24 h is above 64 µM. For the same molecule, the IC50 was above 64 µM in [5], 20.8 µM in data set [6] and 75.8 µM in data set [7]. Also, the “effect on viral RNA levels (in words)” value in data set [5] (up to 64 µM) was “did not show any antiviral effect”.
In the case of `CCCCCOc1ccc(-c2ccc(-c3ccc(C(=O)N[C@H]4C[C@@H](O)[C@@H](O)NC(=O)[C@@H]5[C@@H](O)[C@@H](C)CN5C(=O)[C@H]([C@@H](C)O)NC(=O)[C@H]([C@H](O)[C@@H](O)c5ccc(O)cc5)NC(=O)[C@@H]5C[C@@H](O)CN5C(=O)[C@H]([C@@H](C)O)NC4=O)cc3)cc2)cc1` [Anidulafungin] ({pTerphenylCO(4''-OnC5H11)}-[Orn(4R-OH,5R-OH)]T[Hyp][hTyr(3S-OH,4S-OH)]T[Pro(3S-OH,4S-Me)]; lactam 1-C), the CC50 at 24 h in [4] was found to be 24.6 µM. In addition, the IC50 is 7.09 µM in data set [5], 4.64 µM in data set [8] (ref [16]), 3.24 µM in data set [6] and 2.08 µM in data set [7].
For the molecule `CCCCCOc1ccc(-c2cc(-c3ccc(C(=O)N[C@H]4C[C@@H](O)[C@@H](O)NC(=O)[C@@H]5[C@@H](O)[C@@H](C)CN5C(=O)[C@H]([C@H](O)CC(N)=O)NC(=O)[C@H]([C@H](O)[C@@H](O)c5ccc(O)c(OS(=O)(=O)O)c5)NC(=O)[C@@H]5C[C@@H](O)CN5C(=O)[C@H]([C@@H](C)O)NC4=O)cc3)no2)cc1` [Micafungin] (X1-[Orn(4R-OH,5R-OH)]T[Hyp][hTyr(3S-OH,4S-OH,3'-OSO3H)][Gln(3R-OH)][Pro(3S-OH,4S-Me)]; lactam 1-C), the IC50 in data set [9] is 47.6 µM; in data set [5] it was 26.1 µM; in data set [11] it was 5 to 8 µM; in [12] it was 55.3 µM; in data set [13], 4.98 µM; in data set [14] it was 20.6 µM. Also, the IC50 in data set [8] (ref [15]) is 5.5 to 12.9 µM; in data set [6] it was 10.2 µM; in [7] it was 7.35 µM. The half-life (as a rule, the time in which the quantity being followed falls by half) in data set [10] was 11 to 17 h. Further, the half-maximal cytotoxic concentration (CC50) at 24 h in [4] and in data set [15] was above 64 µM throughout. In addition, the “selectivity index (SI = CC50/IC50)” value in data set [5] was above 2.45.
